Measured values reported in patent US20230192705A1, “SHP2 INHIBITORS, COMPOSITIONS AND USES THEREOF” (Betta Pharmaceuticals Co., Ltd, priority 2020, published 2023).
Where two headings read alike, the source gives them in different places.

Experiments:
[1] = target: T1, SHP2 (Homo sapiens, UniProt Q06124); assay: SHP2 allosteric inhibitor enzyme activity assay (DiFMUP fluorescence); type: biochemical
T1 sequence (Q06124 1-593): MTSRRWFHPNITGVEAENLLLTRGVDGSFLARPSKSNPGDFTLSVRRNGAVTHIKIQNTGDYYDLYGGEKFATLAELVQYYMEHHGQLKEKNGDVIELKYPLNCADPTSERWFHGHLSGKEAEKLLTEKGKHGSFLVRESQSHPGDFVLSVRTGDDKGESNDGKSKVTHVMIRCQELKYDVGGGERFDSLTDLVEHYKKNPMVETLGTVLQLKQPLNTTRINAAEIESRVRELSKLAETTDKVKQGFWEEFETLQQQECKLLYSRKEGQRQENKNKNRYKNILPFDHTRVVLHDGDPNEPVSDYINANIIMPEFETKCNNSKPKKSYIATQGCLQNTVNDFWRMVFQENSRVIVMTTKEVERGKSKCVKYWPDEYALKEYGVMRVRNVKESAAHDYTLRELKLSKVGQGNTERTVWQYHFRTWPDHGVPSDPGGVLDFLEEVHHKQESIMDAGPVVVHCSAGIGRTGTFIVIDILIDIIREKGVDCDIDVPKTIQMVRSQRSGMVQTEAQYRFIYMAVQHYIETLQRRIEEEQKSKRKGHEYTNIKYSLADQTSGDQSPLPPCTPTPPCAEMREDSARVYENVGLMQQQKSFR
How it was run: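 SHP2 activated by 0.5 μM IRS1_pY1172(dPEG8)pY1222 peptide, 0.2 ng enzyme per well, 1 h at room temperature with compound (1 μM top, 3-fold series), then DiFMUP substrate 1 h. Buffer: 60 mM HEPES, 75 mM NaCl, 75 mM KCl, 0.05% BRIJ-35, 1 mM EDTA, 5 mM DTT. Fluorescence ex 340/em 450 nm; IC50 by variable-slope fit.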

[2] = system: lung cancer NCI-H358 cell; assay: Cell proliferation assay (CellTiter-Glo), NCI-H358; type: cell-based; conditions: Homo sapiens, NCI-H358, 96 hrs, CTG, read-out: Compound on NCI-H358 cell IC50
How it was run: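 NCI-H358 cells were seeded at 2000 per well on ultra-low-attachment plates and exposed to compound (1000 nM down to 0.1524 nM, threefold steps) for 96 hrs at 37 °C. Viable cells were measured as ATP by CellTiter-Glo luminescence. Inhibition was computed against 0 nM and medium blanks, and IC50 from variable-slope fits.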

Row | Structure (SMILES) | IC50 ([1]; class symbols) [nM] | IC50 ([2]; class symbols) [nM] | IC50 ([1]; numeric values) [nM] | IC50 ([2]; numeric values) [nM]
1 | N[C@@H]1c2ccccc2CC12CCN(c1nc3[nH]nc(C4(c5ccc(C(F)(F)F)cc5)CC4)c3c(=O)[nH]1)CC2 [Example 228, (S)-6-(1-amino-1,3-dihydrospiro[indene-2,4′-piperidin]-1′-yl)-3-(1-(4-(trifluoromethyl)phenyl)cyclo-propyl)-1,5-dihydro-4H-pyrazolo[3,4-d]pyrimidin-4-one] | ≤ 20 | 20 to 60 | – | –
2 | N[C@@H]1c2ccccc2CC12CCN(c1nc3[nH]nc(C4(c5cccs5)CC4)c3c(=O)[nH]1)CC2 [Example 24, (S)-6-(1-amino-1,3-dihydrospiro[indene-2,4′-piperidin]-1′-yl)-3-(1-(thiophen-2-yl)cyclopropyl)-1,5-dihydro-4H-pyrazolo[3,4-d]pyrimidin-4-one] | – | ≤ 20 | 1.6 | –
3 | N[C@@H]1c2ccccc2CC12CCN(c1nc3[nH]nc(C4(c5csnn5)CC4)c3c(=O)[nH]1)CC2 [Example 240, (S)-3-(1-(1,2,3-thiadiazol-4-yl)cyclopropyl)-6-(1-amino-1,3-dihydrospiro[indene-2,4′-piperidin]-1′-yl)-1,5-dihydro-4H-pyrazolo[3,4-d]pyrimidin-4-one] | ≤ 20 | ≤ 20 | – | –
4 | Cn1c(N2CCC3(CC2)Cc2ccccc2[C@H]3N)nc2[nH]nc(C3(c4ccccc4)CC3)c2c1=O [Example 1] | ≤ 20 | – | – | –
5 | N[C@@H]1c2ccccc2CC12CCN(c1nc3[nH]nc(C4(c5cccc(F)c5)CC4)c3c(=O)[nH]1)CC2 [Example 6, (S)-6-(1-amino-1,3-dihydrospiro[indene-2,4′-piperidin]-1′-yl)-3-(1-(3-fluorophenyl)cyclopropyl)-1,5-dihydro-4H-pyrazolo[3,4-d]pyrimidin-4-one] | – | – | 0.62 | 8.6
6 | N[C@@H]1c2ccccc2CC12CCN(c1nc3[nH]nc(C4(c5ccc6c(c5)OCO6)CC4)c3c(=O)[nH]1)CC2 [Example 34, (S)-6-(1-amino-1,3-dihydrospiro[indene-2,4′-piperidin]-1′-yl)-3-(1-(benzo[d][1,3]dioxol-5-yl)cyclopropyl)-1,5-dihydro-4H-pyrazolo[3,4-d]pyrimidin-4-one] | – | ≤ 20 | 2.7 | –
7 | N[C@@H]1c2ccccc2CC12CCN(c1nc3[nH]nc(C4(c5ccc(Cl)c(Cl)c5)CC4)c3c(=O)[nH]1)CC2 [Example 21, (S)-6-(1-amino-1,3-dihydrospiro[indene-2,4′-piperidin]-1′-yl)-3-(1-(3,4-dichlorophenyl)cyclopropyl)-1,5-dihydro-4H-pyrazolo[3,4-d]pyrimidin-4-one] | ≤ 20 | ≤ 20 | – | –
8 | Nc1ccc(C2(c3n[nH]c4nc(N5CCC6(CC5)Cc5ccccc5[C@H]6N)[nH]c(=O)c34)CC2)cc1 [Example 230, (S)-6-(1-amino-1,3-dihydrospiro[indene-2,4′-piperidin]-1′-yl)-3-(1-(4-aminophenyl)cyclopropyl)-1,5-dihydro-4H-pyrazolo[3,4-d]pyrimidin-4-one] | ≤ 20 | – | – | –
9 | N[C@@H]1c2ccccc2CC12CCN(c1nc3[nH]nc(C4(c5cccc(C(F)(F)F)c5)CC4)c3c(=O)[nH]1)CC2 [Example 8, (S)-6-(1-amino-1,3-dihydrospiro[indene-2,4′-piperidin]-1′-yl)-3-(1-(3-(trifluoromethyl)plienyl)cyclo-propyl)-1,5-dihydro-4H-pyrazolo[3,4-d]pyrimidin-4-one] | – | – | 2.2 | 1.7
10 | N[C@@H]1c2ccccc2CC12CCN(c1nc3[nH]nc(C4(c5ccc6c(c5)OC(F)(F)O6)CC4)c3c(=O)[nH]1)CC2 [Example 13, (S)-6-(1-amino-1,3-dihydrospiro[indene-2,4′-piperidin]-1′-yl)-3-(1-(2,2-difluorobenzo[d][1,3]dioxol-5-yl)cyclopropyl)-1,5-dihydro-4H-pyrazolo[3,4-d]pyrimidin-4-one] | ≤ 20 | ≤ 20 | – | –
11 | N[C@@H]1c2ccccc2CC12CCN(c1nc3[nH]nc(C4(c5ccc(O)cc5)CC4)c3c(=O)[nH]1)CC2 [Example 234, (S)-6-(1-amino-1,3-dihydrospiro[indene-2,4′-piperidin]-1′-yl)-3-(1-(4-hydroxyphenyl)cyclopropyl)-1,5-dihydro-4H-pyrazolo[3,4-d]pyrimidin-4-one] | ≤ 20 | – | – | –
12 | N[C@@H]1c2ccccc2CC12CCN(c1nc3[nH]nc(C4(c5ccc(F)cc5)CC4)c3c(=O)[nH]1)CC2 [Example 11, (S)-6-(1-amino-1,3-dihydrospiro[indene-2,4′-piperidin]-1′-yl)-3-(1-(4-fluorophenyl)cyclopropyl)-1,5-dihydro-4H-pyrazolo[3,4-d]pyrimidin-4-one] | ≤ 20 | – | – | 2.1
13 | N[C@@H]1c2ccccc2CC12CCN(c1nc3[nH]nc(C4(c5ccccc5)CC4(F)F)c3c(=O)[nH]1)CC2 (stereo partly drawn) [Example 9, 6-((S)-1-amino-1,3-dihydrospiro[indene-2,4′-piperidin]-1′-yl)-3-(2,2-difluoro-1-phenylcyclopropyl)-1,5-dihydro-4H-pyrazolo[3,4-d]pyrimidin-4-one] | ≤ 20 | ≤ 20 | – | –
14 | N[C@@H]1c2ccccc2CC12CCN(c1nc3[nH]nc(C4(c5ccccc5)COC4)c3c(=O)[nH]1)CC2 [Example 96, (S)-6-(1-amino-1,3-dihydrospiro[indene-2,4′-piperidin]-1′-yl)-3-(3-phenyloxetan-3-yl)-1,5-dihydro-4H-pyrazolo[3,4-d]pyrimidin-4-one] | ≤ 20 | > 60 | – | –
15 | N[C@@H]1c2ccccc2CC12CCN(c1nc3[nH]nc(C4(c5ccccc5)CC4)c3c(=O)[nH]1)CC2 [Example 33] | – | ≤ 20 | 0.9 | –
16 | N#Cc1ccc(C2(c3n[nH]c4nc(N5CCC6(CC5)Cc5ccccc5[C@H]6N)[nH]c(=O)c34)CC2)cc1 [Example 237, (S)-4-(1-(6-(1-amino-1,3-dihydrospiro[indene-2,4′-piperidin]-1′-yl)-4-oxo-4,5-dihydro-1H-pyrazolo[3,4-d]pyrimidin-3-yl)cyclopropyl)benzonitrile] | ≤ 20 | ≤ 20 | – | –
